Where two headings read alike, the source gives them in different places.
What was measured:
[1] = test system: PC-3 (human prostate cancer cell line); assay: cells; assay type: cell-based; conditions: Homo sapiens; SRB assay, 72 h exposure; read-out: Anticancer activity IC50 (nM) ± SD, PC-3
[2] = test system: SKOV-3 (ovarian cancer cell line); assay: cells; assay type: cell-based, human; conditions: Homo sapiens, SK-OV-3; SRB assay, 72 h exposure; read-out: Anticancer activity IC50 (nM) ± SD, SKOV-3
in vitro = conditions: human, Toxicity IC50 (nM) ± SD, HDF, healthy cell line HDF, SRB assay, 72 h exposure
[3] = test system: SKBR-3 (human breast cancer cell line); assay: cells; assay type: cell-based; conditions: for IC50: SRB assay, 72 h exposure, read-out: Anticancer activity IC50 (nM) ± SD, SKBR-3
[4] = test system: U-87MG cells (glioblastoma cell line); assay: cells; assay type: cell-based, human; conditions: for IC50: Homo sapiens, U-87 MG, SRB assay, 72 h exposure, read-out: Anticancer activity IC50 (nM) ± SD, U-87
[5] = test system: SKBR-3, SKOV-3, PC-3, U-87 cells; assay: SRB cytotoxicity assay, values summarised over cancer cell lines; assay type: cell-based, human
[6] = test system: Human Dermal Fibroblasts cell line (HDF); conditions: read-out: Toxicity IC50 (nM) ± SD, HDF; healthy cell line HDF, SRB assay, 72 h exposure
[7] = Homo sapiens, SKBR-3, SKOV-3, PC-3, U-87, read-out: Anticancer IC50 over the studied cancer cell lines

Row | Structure (SMILES) | IC50 [1] [nM] | IC50 [2] [nM] | IC50 (in vitro) [nM] | IC50 ([3]; Homo sapiens, SK-BR-3, 72 h) [nM] | IC50 [4] [nM] | IC50 [5, 7] [nM] | Selectivity indexes (SIs), all studied cancer cell lines ([5]; SI = IC50 HDF/IC50 cancer cell line) | IC50 ([5]; SKBR-3, SKOV-3, PC-3, U-87, read-out: Anticancer IC50 over the studied cancer cell lines) [nM] | Selectivity index (SI), U-87 ([4]; SI = IC50 HDF/IC50 U-87) | IC50 ([5]; Homo sapiens, average over cancer cell lines, read-out: Average anticancer IC50) [nM] | IC50 [6] [nM] | Selectivity index (SI), SKBR-3 ([3]; SI = IC50 HDF/IC50 SKBR-3) | IC50 [3] [nM]
1 | C/C=C/COc1cc2c(ccc1=O)-c1c(cc(OC)c(OC)c1OC)CC[C@@H]2NC(C)=O [Compound 3e] | 0.96 ± 0.01 | 0.98 ± 0.02 | 2.13 ± 0.06 | 0.94 ± 0.06 | 0.95 ± 0.01 | 0.94 to 0.98 | ~2.2 | ~0.9 | – | – | – | – | –
2 | C=CCCOc1ccc2c(cc1=O)[C@@H](NC(C)=O)CCc1cc(OC)c(OC)c(OC)c1-2 [Compound 4h] | 1.22 ± 0.03 | 1.27 ± 0.16 | 2.71 ± 0.08 | 1.69 ± 0.05 | 1.07 ± 0.12 | – | – | – | ~2.5 | ~1.5 | – | – | –
3 | COc1cc2c(c(OC)c1OC)-c1ccc(OCc3cn(C4CC(n5cc(C)c(=O)[nH]c5=O)OC4CO)nn3)c(=O)cc1C(NC(C)=O)CC2 (stereo not shown) [Compound 6e] | 3.5 ± 0.49 | 3.33 ± 0.11 | 5.18 ± 0.18 | 3.02 ± 0.31 | 3.84 ± 0.02 | – | – | – | – | – | – | – | –
4 | COc1cc2c(c(OC)c1OC)-c1ccc(OCc3cn(CCCNC4=C5C[C@@H](C)C[C@H](OC)[C@H](O)[C@@H](C)/C=C(\C)[C@H](OC(N)=O)[C@@H](OC)/C=C\C=C(/C)C(=O)NC(=CC4=O)C5=O)nn3)c(=O)cc1[C@@H](NC(C)=O)CC2 [Compound 6f] | 17.84 ± 0.16 | 15.3 ± 0.31 | 18 ± 0.24 | 17.4 ± 0.64 | 17.3 ± 0.35 | – | – | – | – | – | – | – | –
5 | COc1cc2c(c(OC)c1OC)-c1ccc(=O)c(OCc3ccc(/C=C/c4ccc5ccccc5c4)cc3)cc1[C@@H](NC(C)=O)CC2 [Compound 7a] | 8.61 ± 0.38 | 8.54 ± 0.71 | 8.19 ± 0.92 | 8.02 ± 0.08 | 8.63 ± 0.14 | – | – | – | – | – | – | – | –
6 | COc1cc2c(c(OC)c1OC)-c1ccc(=O)c(OCc3ccc(/C=C/c4ccccn4)cc3)cc1[C@@H](NC(C)=O)CC2 [Compound 7b] | 2.45 ± 0.52 | 2.69 ± 0.02 | 4 to 5 | 2.09 ± 0.33 | 2.43 ± 0.12 | 2 to 2.5 | – | – | – | – | 5.11 ± 0.85 | – | –
7 | COc1cc2c(c(OC)c1OC)-c1ccc(=O)c(OCc3ccc(/C=C/c4cnc5ccccc5c4)cc3)cc1[C@@H](NC(C)=O)CC2 [Compound 7c] | 1.52 ± 0.01 | 1.03 ± 0.09 | 2.16 ± 0.6 | 1.51 ± 0.02 | 1.73 ± 0.09 | 1.03 to 1.73 | – | – | – | – | – | – | –
8 | COc1cc2c(c(OC)c1OC)-c1ccc(=O)c(OCc3ccc(/C=C/c4ccc(CNC5=C6C[C@@H](C)C[C@H](OC)[C@H](O)[C@@H](C)/C=C(\C)[C@H](OC(N)=O)[C@@H](OC)/C=C\C=C(/C)C(=O)NC(=CC5=O)C6=O)cc4)cc3)cc1[C@@H](NC(C)=O)CC2 [Compound 7d] | 7.49 ± 0.32 | 7.04 ± 0.15 | 9.04 ± 0.29 | 7.22 ± 0.19 | 7.06 ± 0.44 | – | – | – | – | – | – | – | –
9 | COc1cc2c(c(OC)c1OC)-c1ccc(OCc3ccc(/C=C/c4ccc5ccccc5c4)cc3)c(=O)cc1[C@@H](NC(C)=O)CC2 [Compound 8a] | 6.03 ± 0.26 | 6.49 ± 0.25 | 8.72 ± 0.48 | 6.3 ± 0.09 | 6.44 ± 0.07 | – | – | – | – | – | – | – | –
10 | COc1cc2c(c(OC)c1OC)-c1ccc(OCc3ccc(/C=C/c4ccccn4)cc3)c(=O)cc1[C@@H](NC(C)=O)CC2 [Compound 8b] | 2.63 ± 0.77 | 2.84 ± 0.03 | 4 to 5 | 2.77 ± 0.04 | 2.49 ± 0.05 | 2 to 2.5 | – | – | – | – | 4.83 ± 0.27 | – | –
11 | COc1cc2c(c(OC)c1OC)-c1ccc(OCc3ccc(/C=C/c4cnc5ccccc5c4)cc3)c(=O)cc1[C@@H](NC(C)=O)CC2 [Compound 8c] | 1.47 ± 0.05 | 1.41 ± 0.02 | 2.77 ± 0.25 | ~1 | 1.65 ± 0.03 | 1.03 to 1.73 | – | – | – | – | – | ~2.6 | 1.05 ± 0.06
12 | COc1cc2c(c(OC)c1OC)-c1ccc(OCc3ccc(/C=C/c4ccc(CNC5=C6C[C@@H](C)C[C@H](OC)[C@H](O)[C@@H](C)/C=C(\C)[C@H](OC(N)=O)[C@@H](OC)/C=C\C=C(/C)C(=O)NC(=CC5=O)C6=O)cc4)cc3)c(=O)cc1[C@@H](NC(C)=O)CC2 [Compound 8d] | 11 ± 0.44 | 10.52 ± 0.05 | 17.9 ± 1.04 | 11.4 ± 0.15 | 10.8 ± 0.74 | – | – | – | – | – | – | – | –

— publication PMC8788354 (Journal of Enzyme Inhibition and Medicinal Chemistry, 2022)
